Patent US12083084B2, “Method for enhancing energy production and metabolism in cells” (REPLICON HEALTH OY, priority 2013, dated 2024)

Columns and labels:
[1] = Blood pressure (hypertension) in study subjects; assay type: in vivo, human
Procedure: FIG. 12 depicts that hypertension was measured in two study subjects out of eight (subject 4 and 5). Subject 5 was the only person with clearly elevated blood pressure. (For other study subjects 1-3 and 6-8 blood pressures were at normal level.) Subject 5 blood pressure was first observed without any treatment for 6 days (from 20 of Jan. to 26 of Jan. 2013). After that subject 5 received twice a day 4 mg/kg of DGA mixed to water for 10 days. […] Subject 4 received 1×4 mg/k/day of DGA for 3 weeks.
FIG. 12a: Hypertension, subject 5 (averages of three measurements. DGA dosing started on 26th of January and ended on 3rd of February. Dose 2×4 mg/kg/day).
FIG. 12b: Hypertension, subject 4 (averages of three measurements. Subject 4 received 1×4 mg/kg/day of DGA for 3 weeks).

[2] = cited from earlier work
[3] = test system: ethanol-dosed gastric cells; details: in vitro; cited from earlier work
[4] = rats, given with ethanol; cited from earlier work
[5] = 3 week ad libitum feeding study, food intake and body weight; assay type: in vivo, rat
Procedure: In this in vivo experiment 45 rats (24 males and 21 females) were tested in Finnish National Institute of Health. Used DGAcs doses were high compared to human trials ranging between 100-1000 mg/kg/day, but on the other hand the metabolism of rats is much faster than in humans and thus the effective doses for rats can be clearly higher than for humans. In some experiments even 20-50 times higher compared to humans in vivo have been reported in literature. Thus this experiment can give indication also for human use. The animals were kept under controlled conditions, with the temperature set from 20° C. to 21° C., the humidity at 47.6%, and a 12-hour light-dark cycle (lights on at 6:00 am). In this ad libitum feeding study the DGAcs was mixed in the diet for the whole experimental period (3 weeks). The animals were divided into 4 groups, which received 0 (zero control), 2, 10, and 20 g glycerate per kilogram of diet. The average DGAcs consumption was 0.1, 0.5, and 1.0 g/kg per day, respectively, as calculated based on weekly food consumption. The animals experimented were 3 to 5 months old AA rats. The animals were given water and a standard laboratory feed (SDS RM1) ad libitum for 3 weeks. In the experiment the development of weights of rats receiving DGAcs, and the control were measured, as well as the food consumption during the experiment and change in the body weight. Males and females were separated resulting altogether to 8 groups with 5-6 animals in each.

[6] = test system: Mitochondria of Primary Rat Cortical Neurons; assay: Mitochondrial Ca2+-uptake in rat cortical neurons (fluorescent imaging); assay type: cell-based; details: 50 ug/ml for 24 h, N = 3
Procedure: Fluorescent imaging. Imaging experiments were performed at 7 DIV. The cells were loaded with fluorescent dyes (fura4F, fura-ff and rhodamine 123) in cell culture medium at 37° C. 1 h, 5 μM for each dye. Then cells were washed with Mg^2+-free Locke's buffer containing 1.3 mM Ca^2+, moved to the microscope stage, and imaging was performed at room temperature. […] For delayed calcium deregulation experiments a lower affinity Ca^2+-indicator FuraFF (Kd 5.5 μM) was used to avoid a saturation of the signal.
In this study a zero control and one DGAcs group of primary rat cortical neurons was cultivated normally without DGAcs until 6 DIV, and then the DGAcs group was treated with 50 μg/ml DGAcs for 24 hours. After that culture medium was replaced by Mg^2+-free Locke's buffer containing 50 μg/ml DGAcs and imaging experiments were performed at room temperature at 7 DIV.
50 μM NMDA in the presence of 10 μM glycin in Mg^2+-free buffer was used to stimulate the cells.
For complete mitochondrial depolarization and release of Ca^2+ accumulated in mitochondria 2 μM protonophore FCCP was used in the presence of NMDA-receptors inhibitor MK801 (2 μM).

[7] = test system: human primary hepatocytes; assay: NAD+/NADH quantification in human hepatocytes; assay type: cell-based; parameters: NADtot / NADH / NAD+ / NAD+/NADH: unit not given here; details: 48 h + 3 h
Text: For the measurement of total NAD (NADtot=NADH+NAD^+) and NAD^+/NADH ratio, a NAD^+/NADH Quantification kit (MAK037) from Sigma was used. NAD functions as an electron carrier, fluctuating between the oxidized (NAD^+) and reduced (NADH) forms. In addition, NAD^+ plays critical roles in ADP-ribosylation reaction and as a substrate for sirtuins. According to the Sigma instruction, the NAD^+/NADH Quantification kit (Sigma) provides a convenient tool for sensitive detection of NAD, NADH and their ratio without requirement to purify them from samples. Important to notice is that the kit measures NADH and NAD^+ in whole cell including all cell organelles and compartments. Mitochondrial matrix is clearly dominant NADH producer from TCA and beta oxidation (consuming naturally the same amount of NAD^+ in redox reactions). Importantly, formed NADH is also typically oxidized into NAD^+ in the matrix by Complex I in ETC. As is well known anaerobic carbohydrate metabolism, i.e. glycolysis, in cytosol also consumes NAD^+ and produces NADH.
Cell culture in NADH-tests was like in Example 1.1. The change of the medium with DGAcs was conducted at 0 h, 24 h and 48 h. NAD measurements were made at 48+3 h in all cases. For CDP also HPA was tested, and for DOO no new nutrition at 48 h was added, i.e. test was conducted in fasting conditions.

[8] = donor alpha, new nutrition at 48 h, N = 5, 1.4 (μM)
[9] = donor alpha, new nutrition at 48 h, N = 5, 14 (μM)
[10] = donor one, new nutrition at 48 h, N = 5, 1.4 (μM)
[11] = donor one, new nutrition at 48 h, N = 5, 14 (μM)
[12] = donor three, no new nutrition at 48 h (fasting), N = 3, 1.4 (μM)
[13] = donor three, no new nutrition at 48 h (fasting), N = 3, 14 (μM)

Compound: O=C(O)[C@H](O)CO [DGA, D-glyceric acid]
- blood pressure ([1]; subject 4, 1×4 mg/kg/day for 3 weeks): declined also somewhat
- diastolic blood pressure after treatment ([1]; subject 5, clearly elevated blood pressure (102 or 104 before), twice a day for 10 days): ~90
- systolic blood pressure after treatment ([1]; subject 5, clearly elevated blood pressure (roughly 180 before), twice a day for 10 days): ~160
- solubility [2]: readily soluble in water and alcohol
- viability of ethanol-dosed gastric cells [3]: increase viability

Compound: O.O.O=C([O-])[C@H](O)CO.O=C([O-])[C@H](O)CO.[Ca+2] [DGAcs, D-glyceric acid, calcium salt dehydrate]
- metabolism of alcohol [4]: expedited the metabolism of alcohol
- increase in food intake ([5]; DGAcs groups, males and females): 2.5-4%
- average weight change compared to control ([5]; female rats, 3 weeks): +0.2%
- average weight increasing compared to control ([5]; female rats, 3 weeks): 0.6 grams
- food intake higher compared to the control ([5]; female rats, DGAcs groups combined, 3 weeks): 2.5%
- food intake higher compared to the control ([5]; male rats, DGAcs groups combined (0.1, 0.5, 1.0 g/kg per day), 3 weeks): 3.7%
- amount of unexplained energy consumption ([5]; males): roughly 5%
- Average Ca release, FCCP ([6]; 2 μM FCCP + MK801 (complete mitochondrial depolarization)): 0.475 *)
- Average Ca release, peak NMDA ([6]; 50 μM NMDA): 0.219
- Average Ca release, baseline Ca [6]: 0.070
- Change in NAD+/NADH vs. Control [7, 8]: −53%
- NAD+ [7, 8]: 0.009
- NAD+/NADH [7, 8]: 0.040
- NADH [7, 8]: 0.222
- NADtot [7, 8]: 0.231
- Change in NAD+/NADH vs. Control [7, 9]: −62%
- NAD+ [7, 9]: 0.007
- NAD+/NADH [7, 9]: 0.032
- NADH [7, 9]: 0.225
- NADtot [7, 9]: 0.232
- Change in NAD+/NADH vs. Control [7, 10]: −39.3%
- NAD+ [7, 10]: 0.040
- NAD+/NADH [7, 10]: 0.139
- NADH [7, 10]: 0.289
- NADtot [7, 10]: 0.329
- Change in NAD+/NADH vs. Control [7, 11]: −87.2%
- NAD+ [7, 11]: 0.009
- NAD+/NADH [7, 11]: 0.029
- NADH [7, 11]: 0.294
- NADtot [7, 11]: 0.302
- Change in NAD+/NADH vs. Control [7, 12]: −64.6%
- NAD+ [7, 12]: 0.004
- NAD+/NADH [7, 12]: 0.017
- NADH [7, 12]: 0.239
- NADtot [7, 12]: 0.243
- Change in NAD+/NADH vs. Control [7, 13]: −24.0%
- NAD+ [7, 13]: 0.009
- NAD+/NADH [7, 13]: 0.037
- NADH [7, 13]: 0.232
- NADtot [7, 13]: 0.240
